Measured values from ChEMBL document CHEMBL3108665, “Himbacine-derived thrombin receptor antagonists: c7-aminomethyl and c9a-hydroxy analogues of vorapaxar” (ACS Med Chem Lett, 2014).
Activity calls are given as the source filed them. No cut-off for these calls is given here.

How the values were obtained:
[1] = biological target: T1, Proteinase-activated receptor 1 (Homo sapiens, UniProt P25116); assay: Displacement of [3H]haTRAP from PAR-1 isolated from human platelets by liquid scintillation counting analysis
T1 sequence (P25116 whole entry): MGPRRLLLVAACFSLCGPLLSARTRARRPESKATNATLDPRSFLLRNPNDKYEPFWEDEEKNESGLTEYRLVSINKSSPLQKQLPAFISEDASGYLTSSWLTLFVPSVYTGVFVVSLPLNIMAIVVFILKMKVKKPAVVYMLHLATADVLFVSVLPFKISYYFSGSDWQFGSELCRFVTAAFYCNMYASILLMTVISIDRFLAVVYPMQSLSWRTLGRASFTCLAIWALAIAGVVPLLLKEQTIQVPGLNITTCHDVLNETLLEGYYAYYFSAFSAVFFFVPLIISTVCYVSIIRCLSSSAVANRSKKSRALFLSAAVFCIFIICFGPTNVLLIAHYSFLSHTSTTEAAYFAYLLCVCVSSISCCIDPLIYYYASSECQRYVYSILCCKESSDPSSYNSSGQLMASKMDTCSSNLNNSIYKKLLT

[2] = AUC (0 to 6 hrs) in rat plasma at 10 mg/kg, po; format: ADME, organism-based; set-up: time < 6 hr, dose 10 mg/kg, route oral
Cynomolgus monkey = assay: Ex vivo inhibition of PAR-1 in cynomolgus monkey blood assessed as inhibition of haTRAP-induced platelet aggregation at 1 mg/kg, po up to 24 hrs by aggregometry; format: functional, organism-based; set-up: dose 1 mg/kg; conditions: Macaca fascicularis
[3] = Aqueous solubility of the compound; format: physicochemical

SMILES	Ki [1] [nM]	AUC(0-t) at 6 h [2] [ng·h/mL]	solubility [3] [µM]	Activity (Cynomolgus monkey)
C[C@H]1OC(=O)[C@@H]2C[C@@H]3C[C@H](CNC(=O)[C@@H]4CCCN4)CC[C@H]3[C@H](/C=C/c3ccc(-c4cccc(F)c4)cn3)[C@H]12	24			
C[C@H]1OC(=O)[C@@H]2C[C@@H]3C[C@H](C(=O)Nc4cccnc4)CC[C@H]3[C@H](/C=C/c3ccc(-c4cccc(C(F)(F)F)c4)cn3)[C@H]12	239			
CCOC(=O)NC[C@@H]1CC[C@@H]2[C@@H](C1)C[C@H]1C(=O)O[C@H](C)[C@H]1[C@H]2/C=C/c1ccc(-c2cccc(F)c2)cn1	14	1210		
CC(C)NC(=O)[C@@H]1CC[C@@H]2[C@@H](C1)C[C@H]1C(=O)O[C@H](C)[C@H]1[C@H]2/C=C/c1ccc(-c2cccc(C(F)(F)F)c2)cn1	31			
C[C@H]1OC(=O)[C@@H]2C[C@@H]3C[C@H](CN)CC[C@H]3[C@H](/C=C/c3ccc(-c4cccc(F)c4)cn3)[C@H]12	20			
C[C@H]1OC(=O)[C@@H]2C[C@@H]3C[C@H](C(=O)N4CC[C@H](O)C4)CC[C@H]3[C@H](/C=C/c3ccc(-c4cccc(C(F)(F)F)c4)cn3)[C@H]12	384			
C[C@H]1OC(=O)[C@@H]2C[C@@H]3C[C@H](CNS(C)(=O)=O)CC[C@H]3[C@H](/C=C/c3ccc(-c4cccc(F)c4)cn3)[C@H]12	15	7760		
CNC(=O)[C@@H]1CC[C@@H]2[C@@H](C1)C[C@H]1C(=O)O[C@H](C)[C@H]1[C@H]2/C=C/c1ccc(-c2cccc(C(F)(F)F)c2)cn1	25			
CCOC(=O)N1CC[C@@H]2[C@H](C[C@H]3C(=O)O[C@H](C)[C@H]3[C@H]2/C=C/c2ccc(-c3cccc(F)c3)cn2)C1			< 2	
C[C@H]1OC(=O)[C@@H]2C[C@@H]3C[C@H](C(=O)N4CC[C@@H](O)C4)CC[C@H]3[C@H](/C=C/c3ccc(-c4cccc(C(F)(F)F)c4)cn3)[C@H]12	180			
CCNC(=O)[C@@H]1CC[C@@H]2[C@@H](C1)C[C@H]1C(=O)O[C@H](C)[C@H]1[C@H]2/C=C/c1ccc(-c2cccc(C(F)(F)F)c2)cn1	35			
C[C@H](N)C(=O)NC[C@@H]1CC[C@@H]2[C@@H](C1)C[C@H]1C(=O)O[C@H](C)[C@H]1[C@H]2/C=C/c1ccc(-c2cccc(F)c2)cn1	32			
CCS(=O)(=O)NC[C@@H]1CC[C@@H]2[C@@H](C1)C[C@H]1C(=O)O[C@H](C)[C@H]1[C@H]2/C=C/c1ccc(-c2cccc(F)c2)cn1	14.5			
C[C@H]1OC(=O)[C@@H]2C[C@@H]3C[C@H](C(=O)NCCO)CC[C@H]3[C@H](/C=C/c3ccc(-c4cccc(C(F)(F)F)c4)cn3)[C@H]12	98			
CCOC(=O)N[C@@H]1CC[C@@H]2[C@@H](C1)C[C@@]1(O)C(=O)O[C@H](C)[C@H]1[C@H]2/C=C/c1ccc(-c2cccc(F)c2)cn1	19.5	7430		Active
C[C@H]1OC(=O)[C@@H]2C[C@@H]3C[C@H](C(=O)Nc4ccncc4)CC[C@H]3[C@H](/C=C/c3ccc(-c4cccc(C(F)(F)F)c4)cn3)[C@H]12	140			

The remaining compounds from weak to strong by Ki [1], led by results:

Ki [1] [nM]	AUC(0-t) at 6 h [2] [ng·h/mL]	solubility [3] [µM]	SMILES	Activity (Cynomolgus monkey)
13.5	5		C[C@H]1OC(=O)[C@@H]2C[C@@H]3C[C@H](CNC(=O)C4CCNCC4)CC[C@H]3[C@H](/C=C/c3ccc(-c4cccc(F)c4)cn3)[C@H]12	
12.9	567		CCNC(=O)NC[C@@H]1CC[C@@H]2[C@@H](C1)C[C@H]1C(=O)O[C@H](C)[C@H]1[C@H]2/C=C/c1ccc(-c2cccc(F)c2)cn1	
12.5	7730		CCC(=O)NC[C@@H]1CC[C@@H]2[C@@H](C1)C[C@H]1C(=O)O[C@H](C)[C@H]1[C@H]2/C=C/c1ccc(-c2cccc(F)c2)cn1	
12	3810		CC(=O)NC[C@@H]1CC[C@@H]2[C@@H](C1)C[C@H]1C(=O)O[C@H](C)[C@H]1[C@H]2/C=C/c1ccc(-c2cccc(F)c2)cn1	
8.5	3060		CCOC(=O)N[C@@H]1CC[C@@H]2[C@@H](C1)C[C@H]1C(=O)O[C@H](C)[C@H]1[C@H]2/C=C/c1ccc(-c2cccc(F)c2)cn1 [VORAPAXAR]	
8	2670		C[C@H]1OC(=O)[C@@H]2C[C@@H]3C[C@H](CO)CC[C@H]3[C@H](/C=C/c3ccc(-c4cccc(F)c4)cn3)[C@H]12	
5	4860		COC(=O)NC[C@@H]1CC[C@@H]2[C@@H](C1)C[C@H]1C(=O)O[C@H](C)[C@H]1[C@H]2/C=C/c1ccc(-c2cccc(F)c2)cn1	inactive
